In patent US12655116B2, “Substituted isophthalic acid diamides” (Bayer Aktiengesellschaft, priority 2020, dated 2026):

Legend:
ALOMY [1] = test: Pre-emergence herbicidal action against ALOMY; assay type: in vivo, Alopecurus myosuroides; details: 80 g/ha, pre-emergence, scored visually after 3 weeks vs untreated controls (100% = plants have died, 0% = like control plants)
In short: (§1)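 Herbicidal effect was assessed 3 weeks after treatment by visual comparison with untreated controls, 100% denoting dead plants. Aqueous WP or EC preparations had been applied at 600 to 800 l/ha with 0.2% wetting agent to the soil covering freshly sown seeds.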

AMARE [2] = test: Pre-emergence herbicidal action against AMARE; assay type: in vivo, Amaranthus retroflexus
In short: as §1

ECHCG [3] = test: Pre-emergence herbicidal action against ECHCG; assay type: in vivo, Echinochloa crus-galli; details: 80 g/ha
In short: as §1

MATIN [4] = test: Pre-emergence herbicidal action against MATIN; assay type: in vivo, Matricaria inodora
In short: as §1

PHBPU [5] = test: Pre-emergence herbicidal action against PHBPU; assay type: in vivo, Pharbitis purpurea
From the text: Seeds of monocotyledonous and dicotyledonous weed plants and crop plants are laid out in sandy loam soil in wood-fiber pots and covered with soil. The compounds of the invention, formulated in the form of wettable powders (WP) or as emulsion concentrates (EC), are then applied to the surface of the covering soil in the form of an aqueous suspension or emulsion at a water application rate equivalent to 600 to 800 l/ha, with addition of 0.2% wetting agent. After the treatment, the pots are placed in a greenhouse and kept under good growth conditions for the trial plants. The damage to the test plants is scored visually after a test period of 3 weeks by comparison with untreated controls (herbicidal activity in percent (%): 100% activity=the plants have died, 0% activity=like control plants). […] The tables below illustrate, in an illustrative manner, the post-emergence herbicidal action of the compounds of the invention, the herbicidal activity being stated in percent.

SETVI [6] = test: Pre-emergence herbicidal action against SETVI; assay type: in vivo, Setaria viridis
In short: as §1

VIOTR [7] = test: Pre-emergence herbicidal action against VIOTR; assay type: in vivo, Viola tricolor
In short: as §1

DIGSA [8] = test: Pre-emergence herbicidal action against DIGSA; assay type: in vivo, Digitaria sanguinalis
In short: as §1

AMARE [9] = test: Post-emergence herbicidal action against AMARE; assay type: in vivo, Amaranthus retroflexus; details: 20 g/ha, visual assessment about 3 weeks after treatment, 100% = plants have died, 0% = like control plants
In short: (§2)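 Post-emergence greenhouse test; one-leaf stage, 2–3 wk post-sowing, sandy loam. Foliar spray of WP/EC in water, 600–800 l/ha, +0.2% wetting agent. Visual % action at ~3 wk vs untreated (100% = plants dead).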

ABUTH [10] = test: Pre-emergence herbicidal action against ABUTH; assay type: in vivo, Abutilon theophrasti; details: for Pre-emergence action against ABUTH (herbicidal activity): 80 g/ha, scored visually after 3 weeks vs untreated controls (100% = plants have died, 0% = like control plants); for Pre-emergence action against ABUTH (herbicidal activity in percent): dosage 20 g/ha, scored visually after 3 weeks vs untreated controls, 100% = plants have died, 0% = like control plants
In short: as §1

VERPE [11] = test: Pre-emergence herbicidal action against VERPE; assay type: in vivo, Veronica persica
In short: as §1

PHBPU [12] = test: Post-emergence herbicidal action against PHBPU; assay type: in vivo, Pharbitis purpurea
In short: as §2

AVEFA = test: Pre-emergence herbicidal action against AVEFA; assay type: in vivo, Avena fatua; details: 80 g/ha, pre-emergence
In short: as §1

ABUTH [13] = test: Post-emergence herbicidal action against ABUTH; assay type: in vivo, Abutilon theophrasti; details: visual assessment about 3 weeks after treatment vs untreated controls
In short: as §2

ALOMY [14] = test: Post-emergence herbicidal action against ALOMY; assay type: in vivo, Alopecurus myosuroides; details: dosage 20 g/ha, visual assessment about 3 weeks after treatment vs untreated controls
In short: as §2

VERPE [15] = test: Post-emergence herbicidal action against VERPE; assay type: in vivo, Veronica persica; details: 20 g/ha
Method: Seeds of monocotyledonous and dicotyledonous weed and crop plants are laid out in sandy loam soil in wood-fiber pots, covered with soil and cultivated in a greenhouse under good growth conditions. 2 to 3 weeks after sowing, the test plants are treated at the one-leaf stage. The compounds of the invention, formulated in the form of wettable powders (WP) or as emulsion concentrates (EC), are then sprayed onto the green parts of the plants in the form of an aqueous suspension or emulsion at a water application rate equivalent to 600 to 800 l/ha, with addition of 0.2% wetting agent. After the test plants have been left to stand in the greenhouse under optimal growth conditions for about 3 weeks, the action of the preparations is assessed visually in comparison to untreated controls (herbicidal action in percent (%): 100% activity=the plants have died, 0% activity=like control plants). […] The tables below illustrate, in an illustrative manner, the post-emergence herbicidal action of the compounds of the invention, the herbicidal activity being stated in percent.

VIOTR [16] = test: Post-emergence herbicidal action against VIOTR; assay type: in vivo, Viola tricolor
In short: as §2

ECHCG [17] = test: Post-emergence herbicidal action against ECHCG; assay type: in vivo, Echinochloa crus-galli
In short: as §2

MATIN [18] = test: Post-emergence herbicidal action against MATIN; assay type: in vivo, Matricaria inodora
In short: as §2

DIGSA [19] = test: Post-emergence herbicidal action against DIGSA; assay type: in vivo, Digitaria sanguinalis; details: 20 g/ha
In short: as §2

SETVI [20] = test: Post-emergence herbicidal action against SETVI; assay type: in vivo, Setaria viridis; details: dosage 20 g/ha
In short: as §2

[21] = 20 g/ha, scored visually after 3 weeks vs untreated controls, 100% = plants have died, 0% = like control plants
[22] = 80 g/ha, scored visually after 3 weeks vs untreated controls (100% = plants have died, 0% = like control plants)

Row | Compound | Pre-emergence action against ALOMY (herbicidal activity) (ALOMY [1]) [%] | Pre-emergence action against AMARE in % (AMARE [2]; [21]) [%] | Pre-emergence action against AMARE in % (AMARE [2]; [22]) [%] | Pre-emergence action against ECHCG in % (ECHCG [3]) [%] | Pre-emergence action against MATIN in % (MATIN [4]; dosage 80 g/ha) [%] | Pre-emergence action against PHBPU in % (PHBPU [5]; dosage 80 g/ha) [%] | Pre-emergence action against SETVI in % (SETVI [6]; dosage 80 g/ha) [%] | Pre-emergence action against VIOTR in % (VIOTR [7]; dosage 20 g/ha) [%] | Pre-emergence action against VIOTR in % (VIOTR [7]; dosage 80 g/ha) [%] | Pre-emergence action against DIGSA in % (DIGSA [8]; dosage 20 g/ha) [%] | Pre-emergence action against DIGSA in % (DIGSA [8]; dosage 80 g/ha) [%] | Post-emergence action at 20 g/ha against AMARE in % (AMARE [9]) [%] | Pre-emergence action against ABUTH (herbicidal activity) (ABUTH [10]) [%] | Pre-emergence action against VERPE in % (VERPE [11]; dosage 80 g/ha) [%] | Post-emergence action against PHBPU in % (PHBPU [12]; dosage 20 g/ha) [%] | Pre-emergence action against ABUTH (herbicidal activity in percent) (ABUTH [10]) [%] | Pre-emergence action against AVEFA in % (AVEFA) [%] | Pre-emergence action against MATIN in % (MATIN [4]; dosage 20 g/ha) [%] | Post-emergence action against ABUTH in % (ABUTH [13]; dosage 20 g/ha) [%] | Post-emergence action against VIOTR in % (VIOTR [16]; 20 g/ha) [%] | also measured
1 | Cn1nnnc1NC(=O)c1ccc(C(F)(F)F)c(C(=O)NCC2CCCO2)c1Cl (centres unmarked) [Example 1-141] | 90 | 100 | 100 | 90 | 100 | 80 | 100 | 80 | 100 | 90 | 100 | 100 |  |  |  |  |  |  |  |  | Pre-emergence action against SETVI in % (SETVI [6]; dosage 20 g/ha): 90%
2 | CCn1nnnc1NC(=O)c1ccc(C(F)F)c(C(=O)NCC2CCCO2)c1Cl (centres unmarked) [Example 2-159] | 80 | 100 | 100 | 90 | 90 | 90 |  |  | 80 |  |  | 100 | 100 | 80 | 90 |  |  |  |  |  | Post-emergence action against PHBPU in % (PHBPU [12]; dosage 5 g/ha): 80%
3 | CCn1nnnc1NC(=O)c1ccc(Br)c(C(=O)NCCOC)c1Cl [Example 2-186] | 100 | 100 | 100 | 100 | 100 |  |  |  | 90 |  |  | 100 | 100 | 90 |  | 100 | 80 | 80 | 90 | 80 | Post-emergence action against ABUTH in % (ABUTH [13]; dosage 5 g/ha): 80%; Post-emergence action against ALOMY in % (ALOMY [14]): 80%; Post-emergence action against VERPE in % (VERPE [15]): 80%
4 | CCn1nnnc1NC(=O)c1ccc(C(F)(F)F)c(C(=O)NC(C)C2CC2)c1Br (centres unmarked) [Example 2-213] |  | 100 | 100 | 90 | 100 | 90 | 100 | 100 | 100 | 80 | 100 |  | 100 | 90 | 80 | 100 |  | 100 | 80 | 90 | Pre-emergence action against PHBPU in % (PHBPU [5]; dosage 20 g/ha): 80%; Post-emergence action against ECHCG in % (ECHCG [17]; dosage 5 g/ha): 80%; Post-emergence action against ECHCG in % (ECHCG [17]; dosage 20 g/ha): 80%; Post-emergence action against MATIN in % (MATIN [18]; dosage 5 g/ha): 90%; Post-emergence action against MATIN in % (MATIN [18]; dosage 20 g/ha): 100%; Post-emergence action against PHBPU in % (PHBPU [12]; dosage 5 g/ha): 80%; Post-emergence action against DIGSA (DIGSA [19]): 90%
5 | CCn1nnnc1NC(=O)c1ccc(C(F)F)c(C(=O)NCCOC)c1C [Example 2-346] | 80 | 100 | 100 | 90 | 90 |  |  | 80 | 80 |  |  | 100 | 90 | 80 | 80 | 80 | 80 | 90 | 90 | 100 | Post-emergence action against ABUTH in % (ABUTH [13]; dosage 5 g/ha): 90%; Post-emergence action against ALOMY in % (ALOMY [14]): 80%; Post-emergence action against ECHCG in % (ECHCG [17]; dosage 5 g/ha): 80%; Post-emergence action against ECHCG in % (ECHCG [17]; dosage 20 g/ha): 90%; Post-emergence action against VERPE in % (VERPE [15]): 80%; Post-emergence action against VIOTR in % (VIOTR [16]; 5 g/ha): 80%
6 | CCn1nnnc1NC(=O)c1ccc(OC)c(C(=O)NC2CC2)c1Cl [Example 2-354] | 90 | 100 | 100 |  | 100 |  |  | 80 | 100 |  |  | 100 | 100 | 80 | 80 | 90 | 90 | 100 | 90 | 100 | Pre-emergence action against VERPE in % (VERPE [11]; dosage 20 g/ha): 80%; Post-emergence action against ABUTH in % (ABUTH [13]; dosage 5 g/ha): 90%; Post-emergence action against ALOMY in % (ALOMY [14]): 80%; Post-emergence action against SETVI in % (SETVI [20]): 90%; Post-emergence action against VERPE in % (VERPE [15]): 90%
7 | Cc1nnc(NC(=O)c2ccc(C(F)(F)F)c(C(=O)NCC3CC3)c2C2CC2)o1 [Example 6-228] |  |  | 100 | 90 | 80 | 80 | 80 |  |  | 90 | 100 | 90 | 90 |  | 80 |  |  |  |  |  | Post-emergence action against DIGSA (DIGSA [19]): 80%
